The source of these data is patent US10457619B2, “Resorcinol derivatives for cosmetic use thereof” (L'OREAL, priority 2015, dated 2019).

The first test concerns normal human melanocytes. In words: Activity on constitutive melanogenesis: melanin production by normal human melanocytes in vitro. The test is classed as cell-based. The settings on record: Melanocyte, 72 hours incubation, optical density, maximum concentration tested 200 μM, read-out: IC50 (μM): concentration at which a 50% decrease in melanin synthesis is achieved. On the procedure: For the evaluations of the effect of preventing or decreasing pigmentation of the skin and/or of lightening of this skin, the examples are performed in the following manner.
The measurement of the depigmenting activity (reduction of melanin production) of compounds of formula (I) was performed by assaying normal human melanocytes in vitro as follows.
First of all, normal human melanocytes were cultured and dispensed into 384 wells. After 24 hours, the culture medium was replaced with a medium containing compounds of formula (I) to be evaluated. The cells were incubated for 72 hours before measurement of the final optical density, which measures the amount of melanin produced by the melanocytes. A dose effect was performed using a wide concentration range of the compounds evaluated. Thus, by making the concentrations and the melanin measurements correspond, it was possible to determine an IC50 in μM: concentration at which a 50% decrease in melanin synthesis is achieved.
In the case of `CC(CCO)c1ccc(O)cc1O` (stereo not drawn) [Compound 1, 4-(3-hydroxy-1-methylpropyl) benzene-1,3-diol], the IC50 was 3.61 µM. For the compound `CC(=O)OCCC(C)c1ccc(OC(C)=O)cc1OC(C)=O` (stereo not drawn) [Compound 2, 4-[4-(acetyloxy)but-2-yl]benzene-1,3-diyl diacetate], the IC50 was 4.08 µM. `CC(=O)OCCC(C)c1ccc(O)cc1O` (stereo not drawn) [Compound 3, 3-(2,4-dihydroxyphenyl) butyl acetate]: the IC50 was determined as 4.96 µM. On the same count and under the same terms, under `OCCCc1ccc(O)cc1O` [compound (A), reference compound] stands 23.4 µM.

In the next test the test system is pigmented reconstructed epidermides (keratinocytes and melanocytes of European origin, Episkin). In words: Depigmenting activity on pigmented reconstructed epidermis (melanin quantified by image analysis, Fontana-Masson stain). The test is classed as cell-based, human. To be noted: compounds at 30 μM in DMSO, added to culture medium. On the procedure: The aim of this test is to evaluate the modulation of melanogenesis in pigmented reconstructed epidermides after “systemic” application of the products. • The compounds are tested at 30 μM in DMSO. • The pigmented epidermides are reconstructed using keratinocytes and melanocytes of European origin seeded on the substrate BPER (Episkin). The test products are added to the culture medium immediately on seeding the cells and at all the changes of medium.
The pigmented reconstructed epidermis standard study model was published by:
Regnier M., Duval C., Galey J. B., Philippe M., Lagrange A., Tuloup R., Schmidt R., Cellular and Molecular Biology, 1999, 45, 7, 969-980: “Keratinocyte-melanocyte co-cultures and pigmented reconstructed human epidermis: models to study modulation of melanogenesis”.
The melanin was quantified by image analysis on histological sections after revelation with Fontana-Masson stain. Each stained epidermis is photographed over its entire length using a camera connected to a microscope.
The decrease in the amount of melanin is evaluated relative to the solvent (DMSO)
For `CC(CCO)c1ccc(O)cc1O` (stereo not drawn) [Compound 1, 4-(3-hydroxy-1-methylpropyl) benzene-1,3-diol], the “Depigmenting activity/DMSO (decrease in the amount of melanin relative to the solvent)” value is listed as −59%. For `CCCCc1ccc(O)cc1O` [Lucinol, reference compound], the “Depigmenting activity/DMSO (decrease in the amount of melanin relative to the solvent)” value was −41%.
